Numbers after ± are expanded uncertainties.
Assay: activity coefficient (dimensionless); of the first substance listed, at infinite dilution; xn = mol fraction of the nth substance listed
Details: 101 kPa, Liquid, Chromatography, x1 = 0

Row | SMILES | activity coefficient (348.25 K) | activity coefficient (348.15 K) | activity coefficient (328.15 K) | activity coefficient (338.15 K) | activity coefficient (343.15 K) | other results
1 | CCCCOC(C)=O [butyl ethanoate] + NCCCCCCCCCCCCN | 1.69 ± 0.084 | – | – | – | – | activity coefficient (353.15 K): 1.57 ± 0.077; activity coefficient (358.25 K): 1.46 ± 0.07; activity coefficient (363.21 K): 1.36 ± 0.065
2 | CCCOC(C)=O [propyl ethanoate] + NCCCCCCCCCCN | – | 1.11 ± 0.05 | – | – | – | activity coefficient (338.2 K): 1.39 ± 0.066; activity coefficient (353.22 K): 0.991 ± 0.044
3 | c1ccccc1 [benzene] + NCCCCCCCCN | – | 1.59 ± 0.078 | 1.8 ± 0.09 | 1.67 ± 0.083 | 1.62 ± 0.08 | –
4 | CCCCCCl [1-chloropentane] + NCCCCCCCCN | – | 1.73 ± 0.087 | 2.71 ± 0.14 | 2.12 ± 0.11 | 1.92 ± 0.098 | –
5 | CO [methanol] + NCCCCCCCCCCN | – | 0.634 ± 0.033 | – | – | – | activity coefficient (338.2 K): 0.551 ± 0.032; activity coefficient (353.22 K): 0.682 ± 0.035
6 | CCCCOC(C)=O [butyl ethanoate] + NCCCCCCCCN | – | 1.05 ± 0.047 | 1.51 ± 0.073 | 1.25 ± 0.058 | 1.14 ± 0.052 | –
7 | CCO [ethanol] + NCCCCCCCCCCN | – | 0.676 ± 0.034 | – | – | – | activity coefficient (338.2 K): 0.602 ± 0.033; activity coefficient (353.22 K): 0.718 ± 0.035
8 | Cc1ccccc1 [toluene] + NCCCCCCCCCCCCN | 2.6 ± 0.13 | – | – | – | – | activity coefficient (353.15 K): 2.51 ± 0.13; activity coefficient (358.25 K): 2.42 ± 0.12; activity coefficient (363.21 K): 2.33 ± 0.12
9 | C=CCCCCCCCC [1-decene] + NCCCCCCCCN | – | 3.14 ± 0.16 | 4.24 ± 0.22 | 3.58 ± 0.18 | 3.33 ± 0.17 | –
10 | ClC(Cl)(Cl)Cl [tetrachloromethane] + NCCCCCCCCN | – | 1.37 ± 0.065 | 2.06 ± 0.11 | 1.66 ± 0.082 | 1.51 ± 0.073 | –
11 | CCOCC [diethyl ether] + NCCCCCCCCCCCCN | 4.45 ± 0.23 | – | – | – | – | activity coefficient (353.15 K): 4.37 ± 0.22; activity coefficient (358.25 K): 4.33 ± 0.22; activity coefficient (363.21 K): 4.25 ± 0.22
12 | CCO [ethanol] + NCCCCCCCCCCCCN | 0.828 ± 0.039 | – | – | – | – | activity coefficient (353.15 K): 0.891 ± 0.04; activity coefficient (358.25 K): 0.952 ± 0.042; activity coefficient (363.21 K): 1.03 ± 0.045

Continued, in another order:

Row | activity coefficient (348.25 K) | activity coefficient (348.15 K) | activity coefficient (328.15 K) | activity coefficient (338.15 K) | activity coefficient (343.15 K) | SMILES | other results
13 | 1.16 ± 0.053 | – | – | – | – | CCCCC [pentane] + NCCCCCCCCN | activity coefficient (328.21 K): 1.37 ± 0.065; activity coefficient (338.23 K): 1.27 ± 0.059; activity coefficient (343.19 K): 1.22 ± 0.056
14 | – | 3.95 ± 0.2 | 4.36 ± 0.22 | 4.09 ± 0.21 | 4 ± 0.2 | CCCCCCC [heptane] + NCCCCCCCCN | –
15 | – | 2.98 ± 0.15 | – | – | – | C=CCCC [1-pentene] + NCCCCCCCCCCN | activity coefficient (338.2 K): 3.23 ± 0.17; activity coefficient (353.22 K): 2.88 ± 0.15
16 | – | 4.55 ± 0.23 | – | – | – | CCCCCC [hexane] + NCCCCCCCCCCN | activity coefficient (338.2 K): 4.96 ± 0.26; activity coefficient (353.22 K): 4.41 ± 0.23
17 | – | 4.13 ± 0.21 | 4.73 ± 0.24 | 4.4 ± 0.23 | 4.24 ± 0.22 | CCCCCCCC [octane] + NCCCCCCCCN | –
18 | – | 3 ± 0.15 | 3.94 ± 0.2 | 3.38 ± 0.17 | 3.16 ± 0.16 | C=CCCCCCC [oct-1-ene] + NCCCCCCCCN | –
19 | – | 3.1 ± 0.16 | – | – | – | C=CCCCCC [1-heptene] + NCCCCCCCCCCN | activity coefficient (338.2 K): 3.43 ± 0.18; activity coefficient (353.22 K): 2.97 ± 0.15
20 | 4.43 ± 0.23 | – | – | – | – | C=CCCCCC [1-heptene] + NCCCCCCCCCCCCN | activity coefficient (353.15 K): 4.22 ± 0.22; activity coefficient (358.25 K): 4.08 ± 0.21; activity coefficient (363.21 K): 3.88 ± 0.2
21 | 4.5 ± 0.23 | – | – | – | – | CCCCCCCl [1-chlorohexane] + NCCCCCCCCCCCCN | activity coefficient (353.15 K): 4.27 ± 0.22; activity coefficient (358.25 K): 4.11 ± 0.21; activity coefficient (363.21 K): 3.94 ± 0.2
